Data published in patent US4218436A, “Compounds and methods” (The Upjohn Company, priority 1979, dated 1980).

Tests used:
[1] = tested on: antiserum raised against 9-deoxy-9-methylene PGF2 (KLH Conjugate); test: RIA cross-reactivity, displacement of [^3 H] PGE2 from antiserum (KLH Conjugate); format: binding, rabbit; settings: relative to PGE2; ng. required to displace 50% of [^3 H] PGE2
Procedure: (§1) Five milligrams of KLH-PGE2 mimic conjugate is added to 2.25 ml. of sterile saline (0.9%) and 2.25 ml. of Freund's complete adjuvant and blended. 1.0 ml. of this mixture is injected subcutaneously at 20-30 sites on the flanks of four Albino New Zealand rabbits of 2-4 kg. mass. Each rabbit receives a dose of about 1 mg. On the same day, 1.0 ml. of attenuated pertussis vaccine is injected intramuscularly at four sites on the hindquarters of each rabbit.
(§2) A known amount of PGE-type compound in 0.1 ml. PBSG buffer at pH 7.4±0.2 and 0.1 ml. of the radiolabeled form of the same PGE-type compound (10,000 cpm/0.1 ml. PBSG) are introduced into a 12×75 mm. polypropylene tube. Antiserum (0.1 ml.) against the corresponding mimic is added at a dilution which will bind 50%±3% of the radiolabeled authentic PGE-type compound in the absence of competition from the unlabeled PGE-type compound. The tube is incubated for 1 hour at 25° and then 12-16 hours at 4°. Antibody bound and free fractions are separated with dextran-coated charcoal. Other separation techniques are acceptable.
(§3) The data below show the cross-reactivity of antiserum raised against 9-deoxy-9-methylene PGF2 to various PGE-type compounds, relative to PGE2. Percent crossreaction is defined as (ng. of PGE2 required to displace 50% of [^3 H] PGE2)/(ng. heterologous PG required to displace 50% of [^3 H] PGE2)×100.

[2] = tested on: antiserum raised against 9-deoxy-9-methylene PGF2 (BSA Conjugate); test: RIA cross-reactivity, displacement of [^3 H] PGE2 from antiserum (BSA Conjugate); format: binding, rabbit; settings: relative to PGE2; ng. required to displace 50% of [^3 H] PGE2
Procedure: as §1, §2, §3

CCCCC[C@H](O)/C=C/[C@@H]1[C@@H](CCCCCCC(=O)O)[C@@H](O)C[C@H]1O [PGF1 α]
% Cross-Reaction KLH Conjugate [1]: 0.09% | % Cross-Reaction BSA Conjugate [2]: 2.9%
